Test results as given in ChEMBL document CHEMBL5291721, “A preclinical secondary pharmacology resource illuminates target-adverse drug reaction associations of marketed drugs” (Nat Commun, 2023).

What was measured:
[1] = molecular target: T1, 5-hydroxytryptamine receptor 1A (Homo sapiens, UniProt P08908); type: functional, cell-based
T1 sequence (P08908 whole entry): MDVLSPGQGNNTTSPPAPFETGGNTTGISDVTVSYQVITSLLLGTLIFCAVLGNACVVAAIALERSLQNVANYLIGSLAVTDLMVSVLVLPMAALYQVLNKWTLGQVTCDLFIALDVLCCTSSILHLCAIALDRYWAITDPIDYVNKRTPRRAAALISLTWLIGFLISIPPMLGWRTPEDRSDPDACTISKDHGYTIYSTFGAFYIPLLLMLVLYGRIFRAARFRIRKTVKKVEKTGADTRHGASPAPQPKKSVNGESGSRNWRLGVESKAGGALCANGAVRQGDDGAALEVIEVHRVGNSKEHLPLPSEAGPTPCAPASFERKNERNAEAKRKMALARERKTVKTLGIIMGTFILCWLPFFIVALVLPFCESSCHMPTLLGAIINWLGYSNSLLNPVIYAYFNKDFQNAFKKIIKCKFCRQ

Melanocortin receptor 3 = Melanocortin receptor 3 (Homo sapiens, UniProt P41968)
Motilin receptor = Motilin receptor (Homo sapiens, UniProt O43193)
Cannabinoid receptor 1 = Cannabinoid receptor 1 (Homo sapiens, UniProt P21554); type: functional, cell-based
[2] = molecular target: 5-hydroxytryptamine receptor 2B (Homo sapiens, UniProt P41595); type: functional, cell-based
B2 bradykinin receptor = molecular target: T2, B2 bradykinin receptor (Homo sapiens, UniProt P30411)
T2 sequence (P30411 whole entry): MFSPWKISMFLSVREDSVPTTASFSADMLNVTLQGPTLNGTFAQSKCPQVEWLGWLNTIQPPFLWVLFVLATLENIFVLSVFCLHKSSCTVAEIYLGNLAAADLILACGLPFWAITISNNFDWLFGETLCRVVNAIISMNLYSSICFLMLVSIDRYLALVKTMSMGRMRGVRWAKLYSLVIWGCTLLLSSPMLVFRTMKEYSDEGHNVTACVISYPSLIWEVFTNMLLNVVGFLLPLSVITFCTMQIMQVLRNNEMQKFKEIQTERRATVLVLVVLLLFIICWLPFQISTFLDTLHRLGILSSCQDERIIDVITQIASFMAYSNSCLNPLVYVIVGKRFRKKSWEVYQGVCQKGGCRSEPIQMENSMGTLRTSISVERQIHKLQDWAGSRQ

Thromboxane A2 receptor = molecular target: T3, Thromboxane A2 receptor (Homo sapiens, UniProt P21731)
T3 sequence (P21731 whole entry): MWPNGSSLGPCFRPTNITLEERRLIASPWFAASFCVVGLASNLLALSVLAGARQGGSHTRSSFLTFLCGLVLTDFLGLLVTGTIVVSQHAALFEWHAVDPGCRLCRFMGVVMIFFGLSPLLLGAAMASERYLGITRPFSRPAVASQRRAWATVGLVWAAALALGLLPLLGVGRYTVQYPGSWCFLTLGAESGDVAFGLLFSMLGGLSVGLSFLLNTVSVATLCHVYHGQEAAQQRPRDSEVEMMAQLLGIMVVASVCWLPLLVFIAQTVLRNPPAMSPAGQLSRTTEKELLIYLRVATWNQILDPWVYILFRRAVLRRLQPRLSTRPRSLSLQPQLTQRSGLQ

Histamine H2 receptor = Histamine H2 receptor (Homo sapiens, UniProt P25021); type: functional, cell-based
[3] = molecular target: Kappa-type opioid receptor (Homo sapiens, UniProt P41145)
Further: assay procedure not described here.

Kappa-type opioid receptor, sequence (P41145 whole entry): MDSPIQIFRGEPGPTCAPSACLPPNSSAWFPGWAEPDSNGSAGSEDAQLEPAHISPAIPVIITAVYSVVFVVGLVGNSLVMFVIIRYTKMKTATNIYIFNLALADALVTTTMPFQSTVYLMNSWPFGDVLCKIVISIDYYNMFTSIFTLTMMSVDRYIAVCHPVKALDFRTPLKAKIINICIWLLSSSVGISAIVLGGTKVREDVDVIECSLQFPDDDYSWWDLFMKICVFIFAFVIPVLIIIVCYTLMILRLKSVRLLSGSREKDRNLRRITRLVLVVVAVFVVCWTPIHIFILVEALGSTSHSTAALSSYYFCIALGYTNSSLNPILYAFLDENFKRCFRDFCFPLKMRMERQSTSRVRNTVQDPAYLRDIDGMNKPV
Melanocortin receptor 3, sequence (P41968 whole entry): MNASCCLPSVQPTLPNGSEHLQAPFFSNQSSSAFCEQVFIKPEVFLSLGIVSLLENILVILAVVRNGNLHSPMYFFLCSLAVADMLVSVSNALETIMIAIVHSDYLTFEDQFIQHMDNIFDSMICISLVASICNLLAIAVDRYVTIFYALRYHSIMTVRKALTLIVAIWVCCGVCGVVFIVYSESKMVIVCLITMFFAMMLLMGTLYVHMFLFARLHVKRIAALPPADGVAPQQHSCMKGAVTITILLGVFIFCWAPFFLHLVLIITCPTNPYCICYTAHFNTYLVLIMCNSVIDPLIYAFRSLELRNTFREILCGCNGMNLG
5-hydroxytryptamine receptor 2B, sequence (P41595 whole entry): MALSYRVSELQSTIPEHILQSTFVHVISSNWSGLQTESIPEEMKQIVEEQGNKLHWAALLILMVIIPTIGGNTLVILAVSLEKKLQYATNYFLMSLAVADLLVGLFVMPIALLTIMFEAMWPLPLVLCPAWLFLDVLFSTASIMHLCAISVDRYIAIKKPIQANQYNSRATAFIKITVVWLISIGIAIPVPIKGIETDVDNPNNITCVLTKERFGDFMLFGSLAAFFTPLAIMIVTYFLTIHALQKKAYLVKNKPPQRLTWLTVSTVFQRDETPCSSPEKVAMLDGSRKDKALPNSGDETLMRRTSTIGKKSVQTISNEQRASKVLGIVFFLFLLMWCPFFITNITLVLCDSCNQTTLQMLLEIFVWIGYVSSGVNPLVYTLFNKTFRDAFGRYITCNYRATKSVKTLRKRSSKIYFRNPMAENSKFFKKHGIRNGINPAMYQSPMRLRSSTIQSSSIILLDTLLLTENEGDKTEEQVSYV
Motilin receptor, sequence (O43193 whole entry): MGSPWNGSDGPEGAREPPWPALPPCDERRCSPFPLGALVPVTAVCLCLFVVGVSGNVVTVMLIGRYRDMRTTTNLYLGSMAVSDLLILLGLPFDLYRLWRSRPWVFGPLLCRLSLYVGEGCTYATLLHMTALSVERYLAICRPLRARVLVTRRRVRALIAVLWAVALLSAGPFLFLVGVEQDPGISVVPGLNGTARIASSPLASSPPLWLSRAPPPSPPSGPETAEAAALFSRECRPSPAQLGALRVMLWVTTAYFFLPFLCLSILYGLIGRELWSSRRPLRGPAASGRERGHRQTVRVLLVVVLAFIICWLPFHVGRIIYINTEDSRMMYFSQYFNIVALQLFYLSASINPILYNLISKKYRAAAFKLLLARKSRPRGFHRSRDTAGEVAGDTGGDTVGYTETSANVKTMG
Histamine H2 receptor, sequence (P25021 whole entry): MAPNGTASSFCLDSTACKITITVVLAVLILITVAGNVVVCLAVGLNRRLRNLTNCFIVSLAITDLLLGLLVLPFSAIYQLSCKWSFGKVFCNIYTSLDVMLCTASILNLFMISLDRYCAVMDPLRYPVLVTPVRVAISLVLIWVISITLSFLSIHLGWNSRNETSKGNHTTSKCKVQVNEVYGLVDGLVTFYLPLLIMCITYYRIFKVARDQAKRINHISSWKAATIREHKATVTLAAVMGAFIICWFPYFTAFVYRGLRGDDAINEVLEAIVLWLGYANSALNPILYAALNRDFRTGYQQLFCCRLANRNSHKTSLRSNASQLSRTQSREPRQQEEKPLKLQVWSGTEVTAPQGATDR
Cannabinoid receptor 1, sequence (P21554 whole entry): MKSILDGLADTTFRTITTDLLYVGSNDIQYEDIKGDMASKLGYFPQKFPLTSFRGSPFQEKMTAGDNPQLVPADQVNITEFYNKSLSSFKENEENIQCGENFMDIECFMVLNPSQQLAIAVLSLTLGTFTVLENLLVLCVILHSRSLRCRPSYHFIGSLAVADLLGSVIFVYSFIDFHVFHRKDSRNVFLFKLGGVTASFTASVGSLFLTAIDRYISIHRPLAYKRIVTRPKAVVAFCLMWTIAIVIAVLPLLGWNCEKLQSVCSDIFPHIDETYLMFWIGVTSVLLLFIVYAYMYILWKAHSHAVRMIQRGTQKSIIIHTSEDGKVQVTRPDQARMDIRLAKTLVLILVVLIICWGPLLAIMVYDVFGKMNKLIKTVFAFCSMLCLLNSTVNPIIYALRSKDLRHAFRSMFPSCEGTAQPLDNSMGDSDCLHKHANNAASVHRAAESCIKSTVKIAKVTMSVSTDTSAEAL

Structure (SMILES)	AC50 [1] [µM]	AC50 (Melanocortin receptor 3) [µM]	AC50 (Motilin receptor) [µM]	AC50 (Cannabinoid receptor 1) [µM]	AC50 [2] [µM]	AC50 (B2 bradykinin receptor) [µM]	AC50 (Thromboxane A2 receptor) [µM]	AC50 (Histamine H2 receptor) [µM]	AC50 [3] [µM]
CCCN(CCc1cccs1)[C@H]1CCc2c(O)cccc2C1 [ROTIGOTINE]	0.67	> 30	> 30	> 30	–	–	–	–	–
CCc1oc2ccccc2c1C(=O)c1cc(Br)c(O)c(Br)c1 [BENZBROMARONE]	> 30	> 30	> 30	> 30	1.53	> 30	29	> 10	> 10
Clc1cccc(Cl)c1N=C1NCCN1 [CLONIDINE]	> 10	> 30	> 10	> 30	> 10	> 30	> 30	0.39	–
NC(=O)c1ncn([C@@H]2O[C@H](CO)[C@@H](O)[C@H]2O)n1 [RIBAVIRIN]	–	> 10	> 10	> 30	> 10	> 10	> 10	> 10	> 10
CC[C@@H](CO)NC(=O)[C@@H]1C=C2c3cccc4[nH]cc(c34)C[C@H]2N(C)C1 [METHYLERGONOVINE]	–	> 30	> 30	> 30	–	> 30	> 30	0.058	> 30
CC(C)N(CCCCOCC(=O)NS(C)(=O)=O)c1cnc(-c2ccccc2)c(-c2ccccc2)n1 [SELEXIPAG]	24	> 30	> 30	> 30	12	> 10	23.9	> 30	29
[H]/N=C(\N/C(=N/[H])NCCCCCCNC(=N)NC(=N)Nc1ccc(Cl)cc1)Nc1ccc(Cl)cc1 [CHLORHEXIDINE]	8.3	0.49	0.784	> 30	1.26	–	> 30	> 10	3.99
CC(C)C[C@H](CN)CC(=O)O [PREGABALIN]	> 30	> 30	> 30	> 30	> 30	> 30	> 30	> 10	> 30
CNCCC=C1c2ccccc2CCc2ccccc21 [NORTRIPTYLINE]	8	11	> 30	–	0.73	> 30	> 30	> 30	–
Cc1cnc(NC(=O)C2=C(O)c3ccccc3S(=O)(=O)N2C)s1 [MELOXICAM]	> 10	> 30	> 10	> 30	> 10	> 30	> 30	> 10	> 10
CN(C)c1cc(CNCC(C)(C)C)c(O)c2c1C[C@H]1C[C@H]3[C@H](N(C)C)C(O)=C(C(N)=O)C(=O)[C@@]3(O)C(O)=C1C2=O [OMADACYCLINE]	–	> 30	> 30	> 30	> 30	> 30	–	> 30	–
O=C1CN2Cc3c(ccc(Cl)c3Cl)N=C2N1 [ANAGRELIDE]	–	> 30	> 10	> 30	> 10	> 30	> 30	> 10	> 10
CC[C@H]1OC(=O)[C@H](C)[C@@H](O[C@H]2C[C@@](C)(OC)[C@@H](O)[C@H](C)O2)[C@H](C)[C@@H](O[C@@H]2O[C@H](C)C[C@H](N(C)C)[C@H]2O)[C@](C)(O)C[C@@H](C)/C(=N\OCOCCOC)[C@H](C)[C@@H](O)[C@]1(C)O [ROXITHROMYCIN]	> 30	> 30	9	> 30	> 30	–	–	–	–
CNC(=O)c1cc(Oc2ccc(NC(=O)Nc3ccc(Cl)c(C(F)(F)F)c3)c(F)c2)ccn1 [REGORAFENIB]	–	> 30	–	–	–	–	–	–	–
C=C(C)[C@@H]1CCC(C)=C[C@H]1c1c(O)cc(CCCCC)cc1O [CANNABIDIOL]	> 10	25	20.5	–	2.28	–	–	–	–
CNCC[C@H](Oc1cccc2ccccc12)c1cccs1 [DULOXETINE]	–	22.7	5.3	> 30	12	> 30	> 30	> 10	–
CN1CCN(CCCN2c3ccccc3Sc3ccc(S(=O)(=O)N(C)C)cc32)CC1 [THIOPROPERAZINE]	–	–	–	> 30	> 30	–	–	> 30	> 30
CC(=N)N1CC[C@H](SC2=C(C(=O)O)N3C(=O)[C@H]([C@@H](C)O)[C@H]3C2)C1	> 300	> 300	> 300	> 300	> 300	–	–	–	–
CCC(=O)O[C@@H](O[P@](=O)(CCCCc1ccccc1)CC(=O)N1C[C@H](C2CCCCC2)C[C@H]1C(=O)O)C(C)C [FOSINOPRIL]	> 30	–	–	> 30	> 30	–	–	> 30	> 30
CCOc1cc(CC(=O)N[C@@H](CC(C)C)c2ccccc2N2CCCCC2)ccc1C(=O)O [REPAGLINIDE]	> 30	> 30	> 30	> 30	> 30	–	–	–	–
CN1C[C@H](C(=O)N[C@]2(C)O[C@@]3(O)[C@@H]4CCCN4C(=O)[C@H](Cc4ccccc4)N3C2=O)C[C@@H]2c3cccc4[nH]cc(c34)C[C@H]21 [DIHYDROERGOTAMINE]	–	> 30	> 10	> 30	–	> 30	13.7	0.62	> 10
CNCC[C@@H](Oc1ccccc1C)c1ccccc1 [ATOMOXETINE]	–	> 30	> 30	> 30	25	> 30	> 30	> 30	1.8
CCCN(CCC)CCc1cccc2c1CC(=O)N2 [ROPINIROLE]	> 30	> 30	> 30	> 30	–	> 30	> 30	> 10	–
CC1(C)S[C@@H]2[C@H](NC(=O)[C@H](N)c3ccc(O)cc3)C(=O)N2[C@H]1C(=O)O [AMOXICILLIN]	> 10	> 30	> 30	–	> 30	> 30	> 30	> 30	> 30
CO/N=C(\C(=O)N[C@@H]1C(=O)N2C(C(=O)O)=C(COC(N)=O)CS[C@H]12)c1ccco1 [CEFUROXIME]	> 30	> 30	> 30	> 30	> 30	> 30	–	> 30	> 30
COc1ccc(Cc2nccc3cc(OC)c(OC)cc23)cc1OC [PAPAVERINE]	–	> 30	> 30	> 30	> 30	> 30	> 30	> 30	> 30
O=C(Nc1c(Cl)cncc1Cl)c1ccc(OC(F)F)c(OCC2CC2)c1 [ROFLUMILAST]	–	> 30	> 30	> 30	> 30	> 30	> 30	> 30	> 30
CC1(C)O[C@@H]2C[C@H]3[C@@H]4C[C@H](F)C5=CC(=O)C=C[C@]5(C)[C@H]4[C@@H](O)C[C@]3(C)[C@]2(C(=O)CO)O1 [FLUNISOLIDE]	0.56	> 30	> 30	> 30	> 30	–	–	–	–
C[C@H]1Oc2cc(cnc2N)-c2c(nn(C)c2C#N)CN(C)C(=O)c2ccc(F)cc21 [LORLATINIB]	6.2	> 30	> 30	> 30	14	–	–	–	–
